According to PMC8464836 (Biomolecules, 2021):

target: T1, dopamine receptor (D2) wild type (D2Rs) (Homo sapiens, UniProt P14416); test: D2R competition binding with [3H]-spiperone on membranes of transfected CHO cells; settings: D2Rs, competition with 180 pM [3H]-spiperone, mean ± SEM, n = 3
T1 construct: host or cells: CHO cells, transient PEI transfection; membranes prepared 48 h after transfection
Protocol: Chinese hamster ovary cells (CHO cells) were used for the binding experiments. About 24 h before transfection, CHO cells were plated on a 10 cm Petri dish at a density of 1.5 × 10^6 cells and cultivated in 10 mL DMEM/Ham’s F12 supplemented with 10% heat-inactivated fetal bovine serum (FBS).
For transfection, the desired amount of linear polyethyleneimine (PEI) 25_K (Polysciences, Eppelheim, Germany) and DNA (dopamine receptor (D2) wild type, cDNA resource centre, Bloomsberg, PA, USA) were diluted separately in phosphate buffer saline (PBS). After 20 min, DNA was added to PEI solution, mixed and left for an additional 30 min. Final concentration of reactants was 6 µg plasmid DNA and 18 µg PEI per ml. PEI/DNA complex was added (1 mL/dish) and the plates were incubated for another 24 h. Then, the medium was replaced with fresh DMEM/Ham’s F12 with 10% FBS and incubated for an additional 24 h. Cells were maintained at 37 °C in a 5% CO2-humidified atmosphere.
About 48 h after transfection, cells were washed with PBS, mechanically detached from the dish with a plastic scraper in the ice-cold PBS, and centrifuged for 3 min at 250× g. Pellet was suspended in the ice-cold homogenization medium (100 mM NaCl, 20 mM Na-HEPES, 10 mM EDTA, pH 7.4) and homogenized on ice by two 30-s strokes using Polytron homogenizer (Ultra-Turrax; Janke & Kunkel GmbH & Co. KG, IKA-Labortechnik, Staufen, Germany) with a 30-s pause between strokes. Cell homogenates were centrifuged for 5 min at 1000× g. The supernatant was collected and centrifuged for 30 min at 30,000× g. Pellets were suspended in incubation medium (100 mM NaCl, 20 mM Na-HEPES, 10 mM MgCl2, pH 7.4), left for 30 min at 4 °C and centrifuged again for 30 min at 30,000× g. The membrane pellets were kept at −80 °C until use.
All radioligand binding experiments were optimized and carried out as described by El-Fakahany and Jakubik. […] Saturation experiments were performed in 800 μL volume containing: 400 μL of the membrane suspension and 400 μL of the radioligand in six increasing concentrations (ranging from 31 to 1000 pM).
The examined compounds were diluted in incubation buffer and tested in six concentrations (ranging from 0.1 nM–1 mM). The reactions were performed in 400 µL volume containing: 100 µL of the radioligand, 100 µL of tested substances dilution, and 200 µL of the membranes.
Nonspecific binding was determined in the presence of 10 μM unlabeled sulpiride. Membrane suspensions from both saturation and binding experiments (approximately 10 μg of membrane proteins per sample) were incubated in 96-well plates for 1 h at 25 °C in the incubation medium (100 mM NaCl, 20 mM Na-HEPES,10 mM MgCl2, pH = 7.4) in a shaking incubator (25 °C; PST-60HL, Biosan, Riga, Latvia).
The binding reactions were terminated by filtration of the membranes through APFC filter plate (Millipore, Prague, Czech Republic) pre-soaked with 0.5% PEI and washed with ice-cold distilled water using a Brandel cell harvester (Brandel, Gaithersburg, MD, USA). Then, filters with labelled membranes were dried. After 24 h, scintillation cocktail (Rotiszint eco plus, Carl Roth) was added to each sample and radioactivity was quantified by liquid scintillation spectrometry using Wallac Microbeta scintillation counter (Wallac, Turku, Finland). Competition binding experiments were performed per triplicate and all experiments were performed three times. Protein concentration was determined by the Lowry method in the Peterson modification.

T1 sequence (P14416 whole entry): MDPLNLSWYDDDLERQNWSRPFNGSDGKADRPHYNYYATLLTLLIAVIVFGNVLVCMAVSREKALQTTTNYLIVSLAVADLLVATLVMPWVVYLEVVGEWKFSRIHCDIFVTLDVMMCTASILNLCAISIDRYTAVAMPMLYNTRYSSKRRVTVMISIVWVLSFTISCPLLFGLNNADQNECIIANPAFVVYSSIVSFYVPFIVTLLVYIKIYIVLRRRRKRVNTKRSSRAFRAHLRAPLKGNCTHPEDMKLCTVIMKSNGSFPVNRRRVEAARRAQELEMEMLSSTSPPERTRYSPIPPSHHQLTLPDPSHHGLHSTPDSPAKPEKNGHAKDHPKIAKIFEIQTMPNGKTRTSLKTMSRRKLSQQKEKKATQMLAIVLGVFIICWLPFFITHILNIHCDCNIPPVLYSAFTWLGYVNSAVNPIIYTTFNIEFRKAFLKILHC

Ki [µM] | Structure (SMILES)
21 ± 0.6 | CN1CCN(CCCCN2C(=O)CCc3ccccc32)CC1 [6c, 1-(4-(4-Methylpiperazin-1-yl)butyl)-3,4-dihydroquinolin-2(1H)-one]
41 ± 14 | O=C1CCc2ccccc2N1CCCCN1CCOCC1 [6d, 1-(4-Morpholinobutyl)-3,4-dihydroquinolin-2(1H)-one]
9.7 ± 2.3 | O=C1CCc2ccccc2N1CCCCN1CCSCC1 [6e, 1-(4-Thiomorpholinobutyl)-3,4-dihydroquinolin-2(1H)-one]
27 ± 4.7 | CCN(CC)CCCCN1C(=O)CCc2ccccc21 [6f, 1-(4-(Diethylamino)butyl)-3,4-dihydroquinolin-2(1H)-one]
45 ± 11 | COCCN(C)CCCCN1C(=O)CCc2ccccc21 [6g, 1-(4-((2-Methoxyethyl)(methyl)amino)butyl)-3,4-dihydroquinolin-2(1H)-one]

same assay, conditions: Table S1, D2Rs, mean ± S.E.M. of 3 independent experiments in triplicate; read-out: IC50 in µM ± SEM

IC50 [µM] | Structure (SMILES)
82 ± 2.3 | CN1CCN(CCCCN2C(=O)CCc3ccccc32)CC1 [6c, 1-(4-(4-Methylpiperazin-1-yl)butyl)-3,4-dihydroquinolin-2(1H)-one]
166 ± 56 | O=C1CCc2ccccc2N1CCCCN1CCOCC1 [6d, 1-(4-Morpholinobutyl)-3,4-dihydroquinolin-2(1H)-one]
40 ± 8.2 | O=C1CCc2ccccc2N1CCCCN1CCSCC1 [6e, 1-(4-Thiomorpholinobutyl)-3,4-dihydroquinolin-2(1H)-one]
103 ± 19 | CCN(CC)CCCCN1C(=O)CCc2ccccc21 [6f, 1-(4-(Diethylamino)butyl)-3,4-dihydroquinolin-2(1H)-one]
188 ± 38 | COCCN(C)CCCCN1C(=O)CCc2ccccc21 [6g, 1-(4-((2-Methoxyethyl)(methyl)amino)butyl)-3,4-dihydroquinolin-2(1H)-one]

tested on: CHO-K1 cells; test: MTT assay on CHO-K1 cells; type: cell-based, Chinese hamster; settings: Cricetulus griseus, cell viability, 24 h exposure, mean ± SEM, n = 3
Protocol: Standard MTT (3-[4,5-dimethylthiazol-2-yl]-2,5-diphenyltetrazolium bromide) assay (Sigma Aldrich, Prague, Czech Republic) was used according to the manufacturer´s protocol on the CHO-K1 (Chinese hamster ovary, ECACC, Salisbury, UK) in order to compare the effect of different compounds within the series. The cells were cultured according to ECACC recommended conditions and seeded in a density of 8000 per well as described previously. […] Cells were exposed to a tested compound for 24 h. Then the medium was replaced by a medium containing 10 μM of MTT and cells were allowed to produce formazan for another approximately 3 h under surveillance. Thereafter, medium with MTT was sucked out and crystals of formazan were dissolved in DMSO (100 µL). Cell viability was assessed spectrophotometrically by the amount of formazan produced. Absorbance was measured at 570 nm with 650 nm reference wavelength on Synergy HT (BioTek, Winooski, VT, USA). IC50 was then calculated from the control-subtracted triplicates using non-linear regression (four parameters) of GraphPad Prism 9 software. Final IC50 and SEM values were obtained as a mean of three independent measurements.

Structure (SMILES) | IC50 [mM]
CN1CCN(CCCCN2C(=O)CCc3ccccc32)CC1 [6c, 1-(4-(4-Methylpiperazin-1-yl)butyl)-3,4-dihydroquinolin-2(1H)-one] | 1.2 ± 0.2
O=C1CCc2ccccc2N1CCCCN1CCOCC1 [6d, 1-(4-Morpholinobutyl)-3,4-dihydroquinolin-2(1H)-one] | 1.3 ± 0.2
O=C1CCc2ccccc2N1CCCCN1CCSCC1 [6e, 1-(4-Thiomorpholinobutyl)-3,4-dihydroquinolin-2(1H)-one] | 0.8 ± 0.1
CCN(CC)CCCCN1C(=O)CCc2ccccc21 [6f, 1-(4-(Diethylamino)butyl)-3,4-dihydroquinolin-2(1H)-one] | 1.8 ± 0.3
COCCN(C)CCCCN1C(=O)CCc2ccccc21 [6g, 1-(4-((2-Methoxyethyl)(methyl)amino)butyl)-3,4-dihydroquinolin-2(1H)-one] | 2.1 ± 0.8

target: D2Rs; test: not given; settings: Figure 1; cited from earlier work

Structure (SMILES) | pKi for D2Rs | Ki [µM]
COc1ccccc1N1CCN(CCCN2C(=O)CCc3ccccc32)CC1 [USC-D301] | 7.8 | –
CCc1cc(Cl)c(OC)c(C(=O)NC[C@@H]2CCCN2CC)c1O [eticlopride] | – | 0.0001

target: D3Rs; test: not given; settings: Figure 1; cited from earlier work

Structure (SMILES) | pKi for D3Rs
COc1ccccc1N1CCN(CCCN2C(=O)CCc3ccccc32)CC1 [USC-D301] | 6.4

tested on: not listed separately; test: PAMPA assay (Polar Brain Lipid membrane); settings: BBB permeability class predicted from PAMPA Pe
Protocol: In this study, it has been used as a non-cell-based in vitro assay carried out in a coated 96-well membrane filter. The filter membrane of the donor plate was coated with PBL (Polar Brain Lipid, Avanti, AL, USA) in dodecane (4 µL of 20 mg/mL PBL in dodecane) and the acceptor well was filled with 300 µL of PBS pH 7.4 buffer (VA tested compounds were dissolved first in the DMSO/phosphate-buffered saline mixture (maximum 0.5% v/v of DMSO) and subsequently diluted with phosphate-buffered saline (pH 7.4) to final concentrations of 40–100 μM in the donor wells). […] About 300 µL of the donor solution was added to the donor wells (VD) and the donor filter plate was carefully put on the acceptor plate so that coated membrane was “in touch” with both donor solution and acceptor buffer. Test compound diffused from the donor well through the lipid membrane (Area = 0.28 cm^2) to the acceptor well. The concentration of the drug in both donor and the acceptor wells were assessed after 3, 4, 5, and 6 h of incubation in quadruplicate using the UV plate reader Synergy HT (Biotek, Winooski, VT, USA) at the maximum absorption wavelength of each compound. Besides that, solution of theoretical compound concentration, simulating the equilibrium state established if the membrane were ideally permeable was prepared and assessed as well. Concentration of the compounds in the donor and acceptor well and equilibrium concentration were calculated from the standard curve and expressed as the permeability (Pe) according to the equation:(4) Pe=C×ln(1−[drug] acceptor/[drug] equilibrium) where C=(VD×VA)/(VD×VA) Area×Time

Structure (SMILES) | CNS (+/−)
CN1CCN(CCCCN2C(=O)CCc3ccccc32)CC1 [6c, 1-(4-(4-Methylpiperazin-1-yl)butyl)-3,4-dihydroquinolin-2(1H)-one] | CNS + (CNS + (high BBB permeability predicted), Pe (10^−6 cm∙s^−1) > 4.0)
O=C1CCc2ccccc2N1CCCCN1CCOCC1 [6d, 1-(4-Morpholinobutyl)-3,4-dihydroquinolin-2(1H)-one] | CNS + (CNS + (high BBB permeability predicted), Pe (10^−6 cm∙s^−1) > 4.0)
O=C1CCc2ccccc2N1CCCCN1CCSCC1 [6e, 1-(4-Thiomorpholinobutyl)-3,4-dihydroquinolin-2(1H)-one] | CNS + (CNS + (high BBB permeability predicted), Pe (10^−6 cm∙s^−1) > 4.0)
CCN(CC)CCCCN1C(=O)CCc2ccccc21 [6f, 1-(4-(Diethylamino)butyl)-3,4-dihydroquinolin-2(1H)-one] | CNS + (CNS + (high BBB permeability predicted), Pe (10^−6 cm∙s^−1) > 4.0)
COCCN(C)CCCCN1C(=O)CCc2ccccc21 [6g, 1-(4-((2-Methoxyethyl)(methyl)amino)butyl)-3,4-dihydroquinolin-2(1H)-one] | CNS + (CNS + (high BBB permeability predicted), Pe (10^−6 cm∙s^−1) > 4.0)
CNC(=C[N+](=O)[O-])NCCSCc1ccc(CN(C)C)o1 [Ranitidine, reference compound] | CNS − (CNS − (low BBB permeability predicted), Pe (10^−6 cm∙s^−1) < 2.0)

same assay, conditions: PAMPA, pH 7.4

Structure (SMILES) | Papp [×10⁻⁶ cm/s]
NS(=O)(=O)c1cc2c(cc1Cl)N=CNS2(=O)=O [Chlorothiazide, reference compound] | 1.2 ± 0.5
CNC(=C[N+](=O)[O-])NCCSCc1ccc(CN(C)C)o1 [Ranitidine, reference compound] | 0.4 ± 0.3

Other lines, results leading:

Papp [×10⁻⁶ cm/s] | Structure (SMILES)
7.1 ± 1.2 | CN1CCN(CCCCN2C(=O)CCc3ccccc32)CC1 [6c, 1-(4-(4-Methylpiperazin-1-yl)butyl)-3,4-dihydroquinolin-2(1H)-one]
17 ± 2.1 | O=C1CCc2ccccc2N1CCCCN1CCOCC1 [6d, 1-(4-Morpholinobutyl)-3,4-dihydroquinolin-2(1H)-one]
23 ± 3.3 | O=C1CCc2ccccc2N1CCCCN1CCSCC1 [6e, 1-(4-Thiomorpholinobutyl)-3,4-dihydroquinolin-2(1H)-one]
7.4 ± 0.9 | CCN(CC)CCCCN1C(=O)CCc2ccccc21 [6f, 1-(4-(Diethylamino)butyl)-3,4-dihydroquinolin-2(1H)-one]
9.5 ± 1.1 | COCCN(C)CCCCN1C(=O)CCc2ccccc21 [6g, 1-(4-((2-Methoxyethyl)(methyl)amino)butyl)-3,4-dihydroquinolin-2(1H)-one]
